Measurements from patent publication US5674881A, “Quaternary ammonium salts of aromatic amine compounds, their preparation and pharmaceutical compositions in which they are present” (Elf Sanofi, priority 1992, dated 1997).
pKi: −log10 of the molar value. One block for each compound: values may come before it.

Tests used:
[1] = target: T1, substance P receptors on rat cortex (Rattus norvegicus, UniProt P14600); experiment: antagonism of the binding of substance P to its receptor, rat cortex
T1 construct: in tests performed on rat cortex; from tissue; host or cells: rat cortex
Experimental: (§1) Thus the compounds according to the invention antagonize the binding of substance P to its receptor with a Ki of between 0.1 and 800 nM in tests performed on rat cortex and with a Ki of between 0.01 and 30 nM in tests performed on the lymphoblastic cell line IM9.

[2] = target: T2, substance P receptors on human cells of the IM9 line (Homo sapiens, UniProt P25103); experiment: antagonism of the binding of substance P to its receptor, lymphoblastic cell line IM9
T2 construct: in tests performed on the lymphoblastic cell line IM9; endogenous in cells; host or cells: IM9 (human lymphoblastic cell line)
Experimental: as §1

[3] = system: neurokinin receptors; experiment: affinity for the neurokinin receptors; assay type: binding
[4] = system: substance P; experiment: substance P antagonism
[5] = target: substance P receptors (rat receptor); details: 3H-SP binding on rat cortical membranes, Snider et al. 1991; cited from earlier work
[6] = target: substance P receptors (bovine receptor); details: 3H-SP binding on bovine caudal membrane, Snider et al. 1991; cited from earlier work
[7] = system: substance P receptors, IM9 cells; details: substance P binding, Gitter et al. 1991; cited from earlier work
[8] = system: substance P receptors, U373 MG cells; details: substance P binding, Gitter et al. 1991; cited from earlier work
[9] = system: NK1 receptor; details: agonist; D. Regoli 1988 and 1989; cited from earlier work

T2 sequence (P25103 whole entry): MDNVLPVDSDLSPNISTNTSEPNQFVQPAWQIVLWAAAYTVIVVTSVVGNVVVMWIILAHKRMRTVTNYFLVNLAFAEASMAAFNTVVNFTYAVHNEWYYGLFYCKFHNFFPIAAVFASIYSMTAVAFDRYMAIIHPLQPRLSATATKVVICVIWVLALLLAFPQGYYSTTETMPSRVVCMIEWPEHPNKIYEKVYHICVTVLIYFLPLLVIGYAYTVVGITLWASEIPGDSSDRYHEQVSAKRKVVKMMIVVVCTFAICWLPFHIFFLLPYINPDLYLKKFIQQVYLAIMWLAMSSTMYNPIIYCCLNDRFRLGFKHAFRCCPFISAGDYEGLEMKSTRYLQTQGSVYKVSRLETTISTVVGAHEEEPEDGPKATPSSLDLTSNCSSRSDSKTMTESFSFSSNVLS
T1 sequence (P14600 whole entry): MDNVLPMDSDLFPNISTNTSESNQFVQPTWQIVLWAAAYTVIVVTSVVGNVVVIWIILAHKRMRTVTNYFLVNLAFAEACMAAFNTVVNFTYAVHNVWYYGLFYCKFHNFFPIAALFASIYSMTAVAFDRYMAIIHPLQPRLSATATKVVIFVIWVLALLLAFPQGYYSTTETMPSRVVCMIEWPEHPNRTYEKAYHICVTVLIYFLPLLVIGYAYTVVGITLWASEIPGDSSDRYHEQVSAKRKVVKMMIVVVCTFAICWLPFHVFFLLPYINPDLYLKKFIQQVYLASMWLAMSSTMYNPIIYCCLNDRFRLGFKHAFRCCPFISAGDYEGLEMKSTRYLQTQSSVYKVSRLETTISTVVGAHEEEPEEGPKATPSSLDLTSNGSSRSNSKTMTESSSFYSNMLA

pKi [1]: 9.22 to 9.52
pKi [2]: 9.22 to 9.52
affinity for the neurokinin receptors [3]: very high affinity
Compound: CC(C)Oc1cccc(CC(=O)N(C)CC(CCN2CCC(c3ccccc3)CC2)c2ccc(Cl)c(Cl)c2)c1 (stereo not drawn) [(I'b), N-Methyl-N-[4-(4-phenylpiperidin-1-yl)-2-(3,4-dichlorophenyl)butyl]-3-isopropoxyphenylacetamide]
substance P antagonism [4]: powerful substance P antagonists

Compound: COc1ccccc1CN[C@H]1C2CCN(CC2)[C@H]1C(c1ccccc1)c1ccccc1 [CP 96,345]
pKi [5]: 6.62
pKi [6]: 8.52
pKi [7]: 9.40
pKi [8]: 9.40

Compound: [Sar^9, Met-(O2)^11 ]-SP
selectivity for the NK1 receptor [9]: selective
